Source: PubChem BioAssay (NCI)
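Results reflect a 48-hour exposure of cells in 96-well plates to compound at five concentrations. GI50 marks 50% less growth. TGI: total growth inhibition.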 Where a SMILES comes first, the peptide text is derived from it. [ ]: non-standard residue; d: D form. The star is where a group is joined. ξ: configuration not given here. ξF = NC(Cc1ccccc1)C(=O)O; Cbz = O=C(OCc1ccccc1)*; Aib = CC(C)(N)C(=O)O

Tests used:
Assay in all cases: NCI tumour cell line growth inhibition, 48 h
HT29 colon = test system: HT29 colon
K-562 leukemia = test system: K-562 leukemia
LOX IMVI melanoma = test system: LOX IMVI melanoma
NCI-H460 lung = test system: NCI-H460 lung
OVCAR-4 ovarian = test system: OVCAR-4 ovarian
OVCAR-8 ovarian = test system: OVCAR-8 ovarian
SNB-19 CNS = test system: SNB-19 CNS
U251 CNS = test system: U251 CNS
UO-31 renal = test system: UO-31 renal
SNB-75 CNS = test system: SNB-75 CNS

Structure (SMILES)	TGI (HT29 colon)	TGI (K-562 leukemia)	TGI (LOX IMVI melanoma)	TGI (NCI-H460 lung)	TGI (OVCAR-4 ovarian)	TGI (OVCAR-8 ovarian)	TGI (SNB-19 CNS)	TGI (U251 CNS)	TGI (UO-31 renal)	TGI (SNB-75 CNS)	GI50 (HT29 colon)	GI50 (K-562 leukemia)	GI50 (LOX IMVI melanoma)	GI50 (NCI-H460 lung)	GI50 (OVCAR-4 ovarian)	GI50 (OVCAR-8 ovarian)	GI50 (SNB-19 CNS)	GI50 (U251 CNS)	GI50 (UO-31 renal)	GI50 (SNB-75 CNS)
COC(=O)C(C)(C)NC(=O)C(Cc1ccccc1)NC(=O)C(C)(C)NC(=O)OCc1ccccc1 (stereo not drawn) (Cbz-[Aib]-[ξF]-[Aib]-OMe)	> 100 µM	> 100 µM	> 100 µM	> 100 µM	> 100 µM	> 100 µM	> 100 µM	> 100 µM	> 100 µM	–	–	–	–	–	–	–	–	–	–	–
Nc1c(-c2ccccc2[N+](=O)[O-])nc2ccccn12	> 100 µM	> 100 µM	> 100 µM	> 100 µM	–	> 100 µM	–	> 100 µM	> 100 µM	–	–	–	–	–	–	–	–	–	–	–
C(=N\OCCc1ccccc1)/c1cccnc1	> 100 µM	> 100 µM	–	> 100 µM	> 100 µM	> 100 µM	> 100 µM	> 100 µM	> 100 µM	> 100 µM	–	–	–	–	–	–	–	–	–	–
Clc1ccc(-c2ccc(-c3nnc(COc4ccc(OCc5nnc(-c6ccc(-c7ccc(Cl)cc7Cl)o6)o5)c(Cl)c4)o3)o2)c(Cl)c1	> 100 µM	> 100 µM	> 100 µM	> 100 µM	> 100 µM	> 100 µM	> 100 µM	> 100 µM	> 100 µM	–	–	–	–	–	–	–	–	–	–	–
CCCCOCc1cc(CN2CCN(C)CC2)c(O)c2ncccc12	> 100 µM	> 100 µM	> 100 µM	> 100 µM	> 100 µM	> 100 µM	> 100 µM	44.4 µM	55.8 µM	> 100 µM	–	–	–	–	–	–	–	–	–	–
COc1cc(Nc2nnc3n2S(=O)(=O)c2cc(C)c(Cl)cc2S3)cc(OC)c1	> 100 µM	> 100 µM	–	> 100 µM	24.4 µM	81.1 µM	77.6 µM	29.2 µM	> 100 µM	–	–	–	–	–	–	–	–	–	–	–
c1cncc(O[Si](Oc2cccnc2)(Oc2cccnc2)Oc2cccnc2)c1	> 100 µM	–	> 100 µM	> 100 µM	> 100 µM	> 100 µM	> 100 µM	> 100 µM	> 100 µM	> 100 µM	–	–	–	–	–	–	–	–	–	–
NCCSCc1ccccc1Cl	> 100 µM	76.6 µM	66.1 µM	> 100 µM	> 100 µM	> 100 µM	> 100 µM	> 100 µM	> 100 µM	> 100 µM	–	–	–	–	–	–	–	–	–	–
Cc1ccc(N2CCN(CCC(=O)O)CC2)cc1	> 100 µM	> 100 µM	> 100 µM	> 100 µM	> 100 µM	> 100 µM	> 100 µM	> 100 µM	> 100 µM	> 100 µM	–	–	–	–	–	–	–	–	–	–
C[CH2][Ge]([CH2]C)([CH2]C)[O]C(=O)CCC(=O)[O][Ge]([CH2]C)([CH2]C)[CH2]C	> 100 µM	> 100 µM	> 100 µM	> 100 µM	> 100 µM	> 100 µM	> 100 µM	> 100 µM	> 100 µM	–	40.2 µM	29.6 µM	58 µM	24.8 µM	> 100 µM	34.7 µM	> 100 µM	43.3 µM	87.5 µM	–
N=C(N)c1ccc(-c2ccc(-c3cccs3)s2)s1	–	–	–	0.229 µM	4.16 µM	–	3.07 µM	–	2.1 µM	3.41 µM	–	–	–	–	1.33 µM	–	1.56 µM	–	0.318 µM	1.77 µM
